Experimental data as given in patent publication US20060182683A1, “Methods for reduced renal uptake of protein conjugates” (Center for Molecular Medicine and Immunology, priority 1995, published 2006).

Assays:
BALB/c mice = assay: Kidney uptake and biodistribution of 99mTc-Fab′ NP-4 under lysine treatment; format: in vivo; conditions: for Kidney uptake, % of contr.: L-lysine 2000 μg/g
Protocol: (§1) After cervical dislocation, the animals were dissected.
(§2) L-lysine was injected i.p. in hourly intervals from 30 min before until 3 h after intravenous antibody injections (−30′, 1 h, 2 h, 3 h p.i.). […] At doses above this threshold, a strong dose-effect relationship was found. At 4×2000 μg/g, kidney uptake was reduced to 19±1% of the untreated control group at 4 h p.i.

mice [1] = assay: Biodistribution of 99mTc-Fab′ NP-4 under poly-L-lysine of different molecular weight and lysine/poly-lysine mixtures; conditions: poly-L-lysine administered twice (30′ before and 1 h after antibody), dose and size not given, 4 h p.i.
Protocol: Female BALB/c mice, 19 to 22 g of weight, 4 to 5 weeks of age (Charles River Laboratories, Boston, Mass.) were used as non-tumor-bearing animals. For a human tumor xenograft model, the human colon carcinoma cell line GW39 (Primus et al supra) was grown subcutaneously in 5- to 6-week-old female athymic mice (Harlan, Madison, Wis.). Animals were injected intravenously into the tail vein with approximately 5-10 μg of antibody fragment protein (i.e., 25-40 μCi of ^99mTc, ^188Re, and ^111In, resp.; 4 μCi of ^88Y, and 10 μCi of ^125I, respectively).
The mice were sacrificed after 4 h and 24 h for ^99mTc-labeled antibodies, and after 4, 24, 72, 96 and 168 h for ^125I, ^111In, ^88Y and ^188Re-labeled antibodies. Mice were sacrificed by anesthesia with sodium pentobarbital and bled by cardiac puncture. After cervical dislocation, the animals were dissected. Radioactivity in the tumors and tissues (liver, spleen, kidney, lung, intestine, blood and bone) was determined by gamma scintillation counting using an injection standard to correct for physical decay.
L-lysine, D-lysine and L-arginine monohydrochloride salts (Sigma, St. Louis, Mo.) were dissolved in phosphate-buffered saline (PBS) at a concentration of 160 mg/ml. L-lysine ethyl ester dihydrochloride was dissolved in PBS to yield a concentration of 80 mg/ml. Poly-L-lysine (1-4 kDa and 15-30 kDa) were used as hydrochloride salts at concentration of 25 mg/ml and 10 mg/ml, respectively.
Animals were injected with the lysine and/or poly-lysine solutions intraperitoneally in amounts and at frequencies as shown below. Human patients were infused intravenously over a three-hour period with 1.5 liters of a commercially available amino acid solution starting 15 min before the antibody injection. The data of a total of 77 patients examined with ^99mTc-labeled anti-CEA Fab′ (NP-4: n=19; F023C5: n=58) were taken as controls (infused with the same volume of 0.9% saline instead of the amino acid solution).
To attempt to reduce the necessity of frequent injections of the kidney uptake reducing agent, polymeric substances of higher molecular weight were investigated.
To reach maximal effectiveness with as few injections as possible, combinations of lysine and poly-lysine were tested.

[2] = system: GW39 colonic cancer xenograft bearing nude mice; assay: Dosimetry of 111In/88Y-Bz-DTPA-Fab′ MN-14 under L-lysine treatment; format: in vivo; conditions: L-lysine four times 2000 μg/g i.p.
Protocol: as §1
To test the effectiveness of L-lysine in reduction of kidney uptake of indium and yttrium-labeled Fab′ fragments, a mixture of ^111In and ^88Y-labeled Fab′ fragments of the anti-CEA antibody MN-14 were injected into GW39 colon carcinoma bearing nude mice (injected with four times 2000 μg/g L-lysine; the control group were untreated). FIG. 4 and Table 4 suns the results.

mice [3] = assay: Kidney uptake of 111In- and 88Y-labeled F(ab)2 fragments of MN-14; format: in vivo
Description: as §1

mice [4] = assay: Kidney uptake and dosimetry of yttrium-labeled F(ab′)2 of anti-CD22 LL2 under L-lysine; format: in vivo; conditions: Lys treated
mice [5] = assay: Kidney uptake of 125I-labeled Fab′ NP-4 and dosimetry for 131I-labeled Fab′ under L-lysine; format: in vivo
Description: as §1

[6] = system: GW39 colonic cancer xenograft bearing nude mice; assay: Biodistribution of anti-CEA 99mTc-Fab′ NP-4 under L-lysine / poly-L-lysine treatment; format: in vivo
Description: as §1

[7] = system: nude mice bearing GW39 colonic cancer xenografts; assay: Kidney uptake and dosimetry of 188Re-Fab′ Mu-9 under L-lysine treatment; format: in vivo
Description: as §1
No effect on the uptake in the tunor or other organs was observed.

mice [8] = assay: Maximum tolerated dose and toxicity of lysine and poly-lysine; format: in vivo
Description: Comparison of the results in the control mice with those in the mice that receive the lysine and/or poly-lysine allows determination of the optimal dosage required to achieve the desired effect on kidney uptake of radioactivity. Determination of the dosage of lysine and/or poly-lysine that can be tolerated before toxic effects are observed can be achieved by physiological examination and histological observation of organs by methods. The optimal dosages of lysine and/or poly-lysine that are determined using the mouse model are used to guide the determination of appropriate dosage levels in human subjects using a standard dosage escalation regimen. Methods for determining effective dosages of lysine and/or poly-lysine for reducing kidney uptake are further illustrated in the Examples, below.
as §2

[9] = 131I-Fab′ NP-4, L-lysine 4 × 2 mg/g

Molecule: NCCCC[C@@H](N)C(=O)O [D-lysine]
- lowering of kidney uptake compared with L-lysine (BALB/c mice; four hourly injections i.p., same conditions as L-lysine): equally as effective as the L-isomer

Molecule: poly-L-lysine
- Kidney uptake of 99mTc-Fab′ NP-4 (mice [1]; first treated column): 43.7 ± 10.0
- Kidney uptake, % control (mice [1]; first treated column): 59.9 % control
- Kidney uptake of 99mTc-Fab′ NP-4 (mice [1]; second treated column): 41.6 ± 8.8
- Kidney uptake, % control (mice [1]; second treated column): 56.9 % control

Molecule: NCCCC[C@H](N)C(=O)O [L-lysine]
- kidney uptake of 99mTc-Fab′ NP-4, % of the untreated control group (BALB/c mice; 4×2000 μg/g i.p. in hourly intervals, 4 h p.i.): 19±1%
- Kidney uptake, % of contr. (BALB/c mice; injection 4x at −30′, 1, 2, 3 h, 4 h p.i.): 15.5 % of contr.
- Kidney uptake, % of contr. (BALB/c mice; injection once at −30′, 4 h p.i.): 56.4 % of contr.
- Kidney uptake, % of contr. (BALB/c mice; injection twice at −30′ and 1 h, 4 h p.i.): 44.1 % of contr.
- effect on kidney uptake of 99mTc-Fab′ NP-4 (BALB/c mice; doses below four times 100 μg/g body weight, hourly intervals): no significant effect
- persistence of uptake reduction of 99mTc-Fab′ (BALB/c mice; mouse, in vivo): 24 h
- Kidney dose relative to control (100%), based on 88Y [2]: 18.8%
- Kidney dose relative to control (100%), based on 111In [2]: 22.9%
- persistence of reduction of uptake (mice [3]; F(ab′)2 fragments): persisted for several days
- kidney uptake of 111In- and 88Y-F(ab′)2, % of control (mice [3]; lysine treatment): approximately 30%
- Kidney dose, % control (mice [4]): 50.9 % control
- Kidney uptake, % control (mice [4]; 4 h p.i.): 58.5 % control
- Kidney uptake, % control (mice [4]; 48 h p.i.): 49.6 % control
- kidney uptake of iodine-labeled Fab′, % of the nontreated control (mice [5]; 125I-Fab′ NP-4, 4 h p.i.): 38.7%
- Lys/control dose ratio, Blood (mice [5]; [9]): 0.99
- Lys/control dose ratio, Kidney (mice [5]; [9]): 0.51
- Lys/control dose ratio, Liver (mice [5]; [9]): 0.94
- Lys/control dose ratio, Lung (mice [5]; [9]): 0.95
- Lys/control dose ratio, Spleen (mice [5]; [9]): 0.81
- reduction of the absorbed dose to the kidney (mice [5]; calculated for a 131I-labeled Fab′ fragment): 50%
- Kidney uptake, % of contr. ([6]; L-lysine 0.5 mg/g i.p. at −30′, 1, 2, 3 h, 4 h p.i.): 63.0 % of contr.
- Kidney uptake, % of contr. ([6]; L-lysine 0.5 mg/g i.p. at −30′, 1, 2, 3 h, 24 h p.i.): 70.0 % of contr.
- Kidney uptake, % of contr. ([6]; L-lysine 2 mg/g i.p. at −30′, 1, 2, 3 h, 4 h p.i.): 29.7 % of contr.
- Kidney uptake, % of contr. ([6]; L-lysine 2 mg/g i.p. at −30′, 1, 2, 3 h, 24 h p.i.): 30.0 % of contr.
- influence on the tumor uptake or uptake in any other organ than the kidneys ([6]; nude mice bearing human colonic xenografts): no significant influence
- effect on the uptake in the tumor or other organs ([7]; 188Re-Fab′ Mu-9): No effect
- lys/contr. dose ratio, Blood ([7]; 188Re-Fab′ Mu-9): 0.79
- lys/contr. dose ratio, Bone ([7]; 188Re-Fab′ Mu-9): 0.89
- lys/contr. dose ratio, GW39 ([7]; 188Re-Fab′ Mu-9): 1.23
- lys/contr. dose ratio, Kidney ([7]; 188Re-Fab′ Mu-9): 0.39
- lys/contr. dose ratio, Liver ([7]; 188Re-Fab′ Mu-9): 0.96
- lys/contr. dose ratio, Lung ([7]; 188Re-Fab′ Mu-9): 0.76
- lys/contr. dose ratio, Spleen ([7]; 188Re-Fab′ Mu-9): 0.94
- effect on the tumor dose ([7]; 188Re-Mu-9 Fab′ dosimetry): no effect on the tumor dose could be observed
- kidney dose, % of the renal dose in the control group ([7]; 188Re-Mu-9 Fab′ dosimetry): approximately 30%
- kidney uptake of 188Re-Fab′ Mu-9, % of the untreated control ([7]; 4 h p.i.): 29%
- tolerability at the MTD (mice [8]; 4×2500 μg/g, monitored for three months): tolerated without any obvious short or long term toxicity
- maximum tolerated dose (MTD) (mice [8]; 4× injected i.p. in hourly intervals): 2500 µg/g
- toxicity at doses higher than the MTD (mice [8]; above 4×2500 μg/g): began to develop fluid in the body cavities
